From patent publication US6972319B1, “Pituitary adenylate cyclase activating peptide (PACAP)receptor 3 (R3) agonists and their pharmacological methods of use” (priority 1999, dated 2005) come the findings set out here.

No end group written: not given here.

A word on the EC50: it is the concentration needed to bring the measured effect to its halfway point.

One test deals with T1, PACAP-R3 (Homo sapiens, UniProt P41587).
T1 sequence (P41587 24-438): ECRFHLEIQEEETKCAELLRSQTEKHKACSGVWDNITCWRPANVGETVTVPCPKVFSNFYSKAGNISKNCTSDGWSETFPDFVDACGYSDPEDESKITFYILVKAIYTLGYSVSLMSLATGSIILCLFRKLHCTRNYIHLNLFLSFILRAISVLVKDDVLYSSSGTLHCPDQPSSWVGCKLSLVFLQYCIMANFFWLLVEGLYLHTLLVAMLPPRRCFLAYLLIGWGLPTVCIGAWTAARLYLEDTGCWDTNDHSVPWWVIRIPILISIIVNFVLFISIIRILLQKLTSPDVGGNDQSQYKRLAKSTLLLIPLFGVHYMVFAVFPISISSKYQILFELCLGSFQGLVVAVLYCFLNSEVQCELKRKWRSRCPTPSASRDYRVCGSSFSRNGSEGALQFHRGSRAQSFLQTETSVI
Put plainly: Cyclic AMP SPA on CHO cells expressing PACAP R3. It counts as cell-based. Set-up: expressed in transfected cells; host or cells: CHO cells (Geneticin selection). The conditions noted are these: for EC50: cAMP SPA, CHO cells transfected with PACAP-R3, concentration at which 50% of maximum PACAP27 activity is achieved, NA = no detectable activities, read-out: R3 EC50; for R3 Selectivity: ratio of EC50 at R2 versus EC50 at R3. Summed up:
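cAMP SPA readout; CHO stable lines, 24 h culture before use. Peptide treatment 15 min, 37 C, buffer with IBMX 100 uM plus trypsin inhibitor and bacitracin. EC50 = conc. reaching half of max PACAP27 response; R3 selectivity = EC50(R2)/EC50(R3).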

The target of the next test is T2, PACAP-R2 (Homo sapiens, UniProt P32241).
T2 construct: expressed in transfected cells; host or cells: CHO cells
T2 sequence (P32241 31-457): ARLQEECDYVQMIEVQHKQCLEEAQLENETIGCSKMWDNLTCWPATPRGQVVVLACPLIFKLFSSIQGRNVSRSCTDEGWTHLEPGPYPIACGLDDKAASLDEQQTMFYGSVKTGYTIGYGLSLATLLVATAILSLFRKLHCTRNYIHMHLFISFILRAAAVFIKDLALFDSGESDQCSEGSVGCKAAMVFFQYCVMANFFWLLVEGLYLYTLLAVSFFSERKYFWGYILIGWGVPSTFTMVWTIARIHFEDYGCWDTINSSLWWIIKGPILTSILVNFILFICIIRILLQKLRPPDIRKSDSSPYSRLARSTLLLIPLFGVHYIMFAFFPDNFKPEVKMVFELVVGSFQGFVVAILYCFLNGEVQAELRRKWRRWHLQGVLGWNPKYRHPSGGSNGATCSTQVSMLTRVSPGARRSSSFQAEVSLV
As to the kind of experiment: Cyclic AMP SPA on CHO cells transfected with PACAP-R2. It counts as cell-based. The settings on record: cAMP SPA, concentration at which 50% of maximum PACAP27 activity is achieved, NA = no detectable activities, read-out: R2 EC50. The method, then: CHO cells expressing the PACAP R3 were plated in 96-well plates (Costar) at 8×10^4 cell/well and grown at 37 C. for 24 hours in α MEM+nucleosides+glutamine (Giobco BRL), 10% FBS, 100 μg/ml Pen/Strep, 0.3 mg/ml glutamine, 1 mM HEPES, 0.5 mg/ml Geneticin (Gibco BRL). The media was removed and the plates were washed with PBS. The cells were incubated with a peptide, in Hepes-PBS-BSA with 0.4 mg/mlSoybean Trypsin Inhibitor, 0.5 mg/ml Bacitracin, 100 uM IBMX, for 15 min at 37 C. Cyclic AMP in the cell extracts was quantitated using the cAMP SPA direct screening assay system (Amersham Pharmacia Biotech Inc, Piscataway, N.J.,). The peptides shown in Table 3 were assayed for cAMP activity.
EC50 is defined as the concentration of the polypeptide at which 50% of maximum PACAP27 activity is achieved. “NA” denotes no detectable activities. “R3 Selectivity” is derived from the ratio of EC50 at R2 versus EC50 at R3.

“HSDAVFTDNYTRLRKQMAAKKYLNSIKNKG [Peptide R3P158]”: the EC50 at PACAP-R3 is 0.07 nM; at PACAP-R2, 6 nM. At PACAP-R3, the “R3 Selectivity” value was 90.
For “HSDAVFTDNYTRLRKQMAAKKYLNSIQNRI [rR3P184]” the same measures were 0.37 nM, 10 nM and 30.
With “HSDAVFTDNYTRLRKQMAAKKYLNSIKNSR [Peptide R3P148]”, on PACAP-R3, the half-maximal effective concentration (EC50) turned out to be 0.3 nM and the “R3 Selectivity” value was 100. Also, at PACAP-R2, the concentration giving a half-maximal response (EC50) is 30 nM.
For “HSDAVFTDNYTRLRKQVAAKKYLNSIKNKRY [Peptide R3P68]” the same measures were 0.5 nM, 260 and 130 nM.
With “HSDAVFTDNYTRLRKQVAAKKYLQSILNKR [Peptide R3P93]”, on PACAP-R3, the concentration for a half-maximal effect (EC50) amounted to 0.14 nM and the “R3 Selectivity” value is given as 40. Further, the concentration giving a half-maximal response (EC50) on PACAP-R2 is 6 nM.
Taken in the same sequence, the figures for HSDGIFTDSYSRYEKQMAVKKYLAAVL-NH2 [PAC14] were 1.6 nM, 70 and 110 nM.
As to “HSDAVFTDNYTRLRKQMAAKKYLNSIKNHR [Peptide R3P140]”, the EC50 on PACAP-R3 was found to be 0.3 nM; on PACAP-R2, 15 nM. Also, the “R3 Selectivity” value on PACAP-R3 was found to be 50.
HSDGIFTDSYSRKRKQMAVKKYLAAVL-NH2 [PAC13]: the 50% effective concentration (EC50) on PACAP-R3 amounted to 0.5 nM; at PACAP-R2, 3 nM. The “R3 Selectivity” value on PACAP-R3 is given as 6.
`CC[C@H](C)[C@H](NC(=O)[C@H](CO)NC(=O)[C@H](CC(N)=O)NC(=O)[C@H](CC(C)C)NC(=O)[C@H](Cc1ccc(O)cc1)NC(=O)[C@H](CCCCN)NC(=O)[C@H](CCCCN)NC(=O)[C@H](C)NC(=O)[C@H](C)NC(=O)[C@H](CCSC)NC(=O)[C@H](CCC(N)=O)NC(=O)[C@H](CCCCN)NC(=O)[C@H](CCCNC(=N)N)NC(=O)[C@H](CC(C)C)NC(=O)[C@H](CCCNC(=N)N)NC(=O)[C@@H](NC(=O)[C@H](Cc1ccc(O)cc1)NC(=O)[C@H](CC(N)=O)NC(=O)[C@H](CC(=O)O)NC(=O)[C@@H](NC(=O)[C@H](Cc1ccccc1)NC(=O)[C@@H](NC(=O)[C@H](C)NC(=O)[C@H](CC(=O)O)NC(=O)[C@H](CO)NC(=O)[C@@H](N)Cc1c[nH]cn1)C(C)C)[C@@H](C)O)[C@@H](C)O)C(=O)N[C@@H](Cc1ccc(O)cc1)C(=O)N[C@@H](CC(N)=O)C(=O)N[C@@H](CCCCN)C(=O)N[C@@H](CCCNC(=N)N)C(=O)O` [Peptide R3P133]: the EC50 on PACAP-R2 is 8 nM.
As for `CC[C@H](C)[C@H](NC(=O)[C@H](CO)NC(=O)[C@H](CC(N)=O)NC(=O)[C@H](CC(C)C)NC(=O)[C@H](Cc1ccc(O)cc1)NC(=O)[C@H](CCCCN)NC(=O)[C@H](CCCCN)NC(=O)[C@H](C)NC(=O)[C@H](C)NC(=O)[C@H](CCSC)NC(=O)[C@H](CCC(N)=O)NC(=O)[C@H](CCCCN)NC(=O)[C@H](CCCNC(=N)N)NC(=O)[C@H](CC(C)C)NC(=O)[C@H](CCCNC(=N)N)NC(=O)[C@@H](NC(=O)[C@H](Cc1ccc(O)cc1)NC(=O)[C@H](CC(N)=O)NC(=O)[C@H](CC(=O)O)NC(=O)[C@@H](NC(=O)[C@H](Cc1ccccc1)NC(=O)[C@@H](NC(=O)[C@H](C)NC(=O)[C@H](CC(=O)O)NC(=O)[C@H](CO)NC(=O)[C@@H](N)Cc1c[nH]cn1)C(C)C)[C@@H](C)O)[C@@H](C)O)C(=O)N[C@@H](CCCCN)C(=O)N[C@@H](CC(N)=O)C(=O)N[C@@H](C)C(=O)N[C@@H](CCCNC(=N)N)C(=O)O` [Peptide R3P134], the concentration for a half-maximal effect (EC50) at PACAP-R2 turned out to be 40 nM.
Consider `CC[C@H](C)[C@H](NC(=O)[C@H](CO)NC(=O)[C@H](CC(N)=O)NC(=O)[C@H](CC(C)C)NC(=O)[C@H](Cc1ccc(O)cc1)NC(=O)[C@H](CCCCN)NC(=O)[C@H](CCCCN)NC(=O)[C@@H](NC(=O)[C@H](C)NC(=O)[C@H](CCSC)NC(=O)[C@H](CCC(N)=O)NC(=O)[C@H](CCCCN)NC(=O)[C@H](CCCNC(=N)N)NC(=O)[C@H](CC(C)C)NC(=O)[C@H](CCCNC(=N)N)NC(=O)[C@@H](NC(=O)[C@H](Cc1ccc(O)cc1)NC(=O)[C@H](CC(N)=O)NC(=O)[C@H](CC(=O)O)NC(=O)[C@@H](NC(=O)[C@H](Cc1ccccc1)NC(=O)[C@@H](NC(=O)[C@H](C)NC(=O)[C@H](CC(=O)O)NC(=O)[C@H](CO)NC(=O)[C@@H](N)Cc1c[nH]cn1)C(C)C)[C@@H](C)O)[C@@H](C)O)[C@@H](C)O)C(=O)N[C@@H](CCCCN)C(=O)N[C@@H](CC(N)=O)C(=O)N[C@@H](CCCCN)C(=O)N[C@@H](CCCNC(=N)N)C(=O)O` [Peptide R3P112], for which the EC50 on PACAP-R2 amounted to 4 nM.
Still for that read-out and setting: in the case of `CC[C@H](C)[C@H](NC(=O)[C@H](CO)NC(=O)[C@H](CC(N)=O)NC(=O)[C@H](CC(C)C)NC(=O)[C@H](Cc1ccc(O)cc1)NC(=O)[C@H](CCCCN)NC(=O)[C@H](CCCCN)NC(=O)[C@H](C)NC(=O)[C@H](C)NC(=O)[C@H](CCSC)NC(=O)[C@H](CCC(N)=O)NC(=O)[C@H](CCCCN)NC(=O)[C@H](CCCNC(=N)N)NC(=O)[C@H](CC(C)C)NC(=O)[C@H](CCCNC(=N)N)NC(=O)[C@@H](NC(=O)[C@H](Cc1ccc(O)cc1)NC(=O)[C@H](CC(N)=O)NC(=O)[C@H](CC(=O)O)NC(=O)[C@@H](NC(=O)[C@H](Cc1ccccc1)NC(=O)[C@@H](NC(=O)[C@H](C)NC(=O)[C@H](CC(=O)O)NC(=O)[C@H](CO)NC(=O)[C@@H](N)Cc1c[nH]cn1)C(C)C)[C@@H](C)O)[C@@H](C)O)C(=O)N[C@@H](CCCCN)C(=O)N[C@@H](CC(N)=O)C(=O)N[C@@H](CCCCN)C(=O)N[C@@H](CCSC)C(=O)O` [Peptide R3P163] it was 40 nM.
For `CC[C@H](C)[C@H](NC(=O)[C@H](CO)NC(=O)[C@H](CC(N)=O)NC(=O)[C@H](CC(C)C)NC(=O)[C@H](Cc1ccc(O)cc1)NC(=O)[C@H](CCCCN)NC(=O)[C@H](CCCCN)NC(=O)[C@@H](NC(=O)[C@H](C)NC(=O)[C@H](CCSC)NC(=O)[C@H](CCC(N)=O)NC(=O)[C@H](CCCCN)NC(=O)[C@H](CCCNC(=N)N)NC(=O)[C@H](CC(C)C)NC(=O)[C@H](CCCNC(=N)N)NC(=O)[C@@H](NC(=O)[C@H](Cc1ccc(O)cc1)NC(=O)[C@H](CC(N)=O)NC(=O)[C@H](CC(=O)O)NC(=O)[C@@H](NC(=O)[C@H](Cc1ccccc1)NC(=O)[C@@H](NC(=O)[C@H](C)NC(=O)[C@H](CC(=O)O)NC(=O)[C@H](CO)NC(=O)[C@@H](N)Cc1c[nH]cn1)C(C)C)[C@@H](C)O)[C@@H](C)O)C(C)C)C(=O)N[C@@H](CCCCN)C(=O)N[C@@H](CC(N)=O)C(=O)N[C@@H](CCCCN)C(=O)N[C@@H](CCCNC(=N)N)C(=O)O` [Peptide R3P113], the EC50 on PACAP-R2 came to 3 nM.
Still for that read-out and setting: the result for `CC[C@H](C)[C@H](NC(=O)[C@H](CO)NC(=O)[C@H](CC(N)=O)NC(=O)[C@H](CC(C)C)NC(=O)[C@H](Cc1ccc(O)cc1)NC(=O)[C@H](CCCCN)NC(=O)[C@H](CCCCN)NC(=O)[C@H](C)NC(=O)[C@H](C)NC(=O)[C@H](CCSC)NC(=O)[C@H](CCC(N)=O)NC(=O)[C@H](CCCCN)NC(=O)[C@H](CCCNC(=N)N)NC(=O)[C@H](CC(C)C)NC(=O)[C@H](CCCNC(=N)N)NC(=O)[C@@H](NC(=O)[C@H](Cc1ccc(O)cc1)NC(=O)[C@H](CC(N)=O)NC(=O)[C@H](CC(=O)O)NC(=O)[C@@H](NC(=O)[C@H](Cc1ccccc1)NC(=O)[C@@H](NC(=O)[C@H](C)NC(=O)[C@H](CC(=O)O)NC(=O)[C@H](CO)NC(=O)[C@@H](N)Cc1c[nH]cn1)C(C)C)[C@@H](C)O)[C@@H](C)O)C(=O)N[C@@H](CCCCN)C(=O)N[C@@H](CC(N)=O)C(=O)N[C@@H](CCCCN)C(=O)N[C@@H](CC(C)C)C(=O)O` [Peptide R3P162] reads 20 nM.
